Test results taken from patent US6841366B1, “Biotin biosynthesis in bacillus subtilis” (DSM IP Assets B.V., priority 1993, dated 2005).

Columns and labels:
[1] = test system: B. subtilis PY79 and azelaic acid resistant mutants; assay: Growth inhibition by azelaic acid, minimal agar; format: cell-based
Excerpt: (§1) Azelaic acid, a straight chain C9 dicarboxylic acid, is a homolog of pimelic acid and is thought to be an intermediate in the conversion of oleic acid to pimelic acid (see Ohsugi and Inoue (1981) Agric. Biol. Chem. 45: 2355-2356, hereby incorporated by reference).
Seven spontaneous mutants that outgrew the background of PY79 on 2 g/l Azelaic acid were isolated. The resistance to azelaic acid appeared to be a stable trait in all but one case (see below). The seven mutants were provisionally named PA1-PA7 (PY79 Azelaic acid resistant). PA1 through PA7 were grown in test tubes in VY medium, and biotin production was assayed using E. coli indicator strains (Table 15). The mutants fell into two classes, those that yielded more biotin than PY79 (PA5, PA6) and those that were similar to PY79 (PA1, 2, 3, and 7). PA4 appeared to be either unstable or not a true mutant and was dropped from further study. Applicants also noticed that the mutants fell into two classes with respect to colony size on minimal agar with 2 g/l azelaic acid, and that these two classes corresponded to the two classes of biotin producers (Table 11). The mutants with the most biotin in the supernatant (PA5 and PA6) gave small colonies, while the biotin non-secreters, PA1, 2, 3, and 7, gave large colonies. PA1 and PA3 secreted a compound that cross-fed PY79 (i.e., reversed the azelaic acid inhibition of PY79) on minimal plates containing 2 g/l azelaic acid.

PY79 bioI::cat = assay: Growth of bioI::cat mutants on biotin-free medium with supplements; format: cell-based, B. subtilis
E. coli strain MM294 = assay: Azelaic acid sensitivity of wild-type E. coli; format: cell-based
Excerpt: (§2) Therefore, Applicants concluded that azelaic acid acts at the level of pimelyl CoA synthetase (bioW), either as a competitive inhibitor of pimelic acid, or by incorporation into a biotin homolog or other toxic intermediate.

[2] = test system: E. coli strain RY604(ΔbioH) containing pBIO403; assay: Growth of E. coli carrying only B. subtilis bioW, with pimelic acid and azelaic acid; format: cell-based
Method: A plasmid (pBIO403) containing only the B. subtilis bioW gene and its promoter cloned into pCL1921 (Lerner and Inouye, 1990, supra), complemented both E. coli ΔbioH and bioC mutants, if and only if pimelic acid was added to the medium at about 30 mg/l. This experiment confirmed that bioW encodes a pimelyl-CoA synthetase that can bypass bioH and bioC in E. coli.
as §2

B. subtilis = assay: Stimulation of biotin vitamer production by pimelic acid; format: cell-based; conditions: 1 g/l
Method: In all fermentations, 1 g/l pimelic acid was added to both the initial batch and feed solutions. BI282, BI278 and BI276 were the most optimized for biotin and biotin vitamer production.
Addition of pimelate to the fermentation medium results in an increased level of a biotin vitamer which is probably KAPA (FIG. 15, lane D). This was shown by an increase in the KAPA/BSO spot compared to similar fermentations without pimelate (FIG. 15, lane B).
as §1

SMILES	Growth inhibition of wild-type B. subtilis ([1]; azelaic acid at concentrations higher than 30 mg/l)	Growth inhibition of PY79 ([1]; minimal agar, azelaic acid 2 g/l (about 10^−2 M), did not kill or completely prevent growth)	Colony size on 2 g/l azelaic acid ([1]; strain PA1, minimal agar)	Colony size on 2 g/l azelaic acid ([1]; strain PA2, minimal agar)	Colony size on 2 g/l azelaic acid ([1]; strain PA3, minimal agar)	Colony size on 2 g/l azelaic acid ([1]; strain PA4, minimal agar)	Colony size on 2 g/l azelaic acid ([1]; strain PA5, minimal agar)	Colony size on 2 g/l azelaic acid ([1]; strain PA6, minimal agar)	Colony size on 2 g/l azelaic acid ([1]; strain PA7, minimal agar)	Colony size on 2 g/l azelaic acid ([1]; strain PY79, minimal agar)	Growth inhibition of PY79 bioI::cat9 (PY79 bioI::cat; 30 mg/l)	Substitution for pimelic acid in supporting growth of PY79 bioI::cat9 (PY79 bioI::cat; 30 mg/l)	Sensitivity of wild-type E. coli MM294 to azelaic acid (E. coli strain MM294)	Sensitivity of RY604/pBIO403 to azelaic acid ([2]; grown in excess pimelic acid (80 mg/l))	Restoration of growth of PY79 bioI::cat9 bradytroph (PY79 bioI::cat; 30 mg/l)	Growth of PY79 bioI::cat strains (either cat orientation) on biotin-free medium (PY79 bioI::cat; pimelic acid 33 μg/ml)	Satisfaction of the biotin requirement of RY604(ΔbioH)/pBIO403 ([2]; 30 mg/l)	Effect on biotin vitamer production in B. subtilis (B. subtilis)
O=C(O)CCCCCCCC(=O)O [azelaic acid, Azelaic acid]	inhibits the growth	severely inhibited growth	large	large	large	tiny	small	small	large	tiny	severely inhibited the growth	does not substitute for pimelic acid	relatively resistant	sensitive to inhibition				
O=C(O)CCCCCC(=O)O [pimelic acid]															restore wild-type growth	grew to wild-type levels	can satisfy the biotin requirement	stimulate biotin vitamer production
